Several values for one entry are separate records, joined by “and”; a condition that tells them apart may be missing. Equal values may be shown once.
Conditions: Gas

O=C(C(F)(F)C(F)(F)F)C(F)(C(F)(F)F)C(F)(F)F [dodecafluoro-2-methylpentan-3-one]
Conditions | thermal conductivity
453.04 K, 2349 kPa, transient hot wire | 0.03749 W/m/K
453.05 K, 2432 kPa, transient hot wire | 0.03632 W/m/K
453.06 K, 2213 kPa, transient hot wire | 0.03787 W/m/K
453.06 K, 2283 kPa, transient hot wire | 0.039 W/m/K
453.07 K, 2432 kPa, transient hot wire | 0.03565 W/m/K
453.08 K, 2213 kPa, transient hot wire | 0.03857 W/m/K and 0.03787 W/m/K
453.09 K, 2350 kPa, transient hot wire | 0.03794 W/m/K and 0.03775 W/m/K
453.11 K, 2432 kPa, transient hot wire | 0.03612 W/m/K and 0.03616 W/m/K
453.11 K, 2570 kPa, transient hot wire | 0.03577 W/m/K and 0.03583 W/m/K
453.11 K, 2808 kPa, transient hot wire | 0.03624 W/m/K and 0.03614 W/m/K
453.14 K, 2350 kPa, transient hot wire | 0.03841 W/m/K and 0.03851 W/m/K
453.15 K, 2570 kPa, transient hot wire | 0.0359 W/m/K
453.16 K, 2433 kPa, transient hot wire | 0.03632 W/m/K
453.17 K, 2136 kPa, transient hot wire | 0.03394 W/m/K and 0.03367 W/m/K
453.17 K, 2432 kPa, transient hot wire | 0.03641 W/m/K
453.17 K, 2808 kPa, transient hot wire | 0.03589 W/m/K
453.19 K, 5686 kPa, transient hot wire | 0.04064 W/m/K
453.21 K, 2136 kPa, transient hot wire | 0.03328 W/m/K
453.21 K, 2570 kPa, transient hot wire | 0.03619 W/m/K
453.21 K, 3282 kPa, transient hot wire | 0.03735 W/m/K
453.21 K, 3283 kPa, transient hot wire | 0.03693 W/m/K
453.22 K, 2136 kPa, transient hot wire | 0.03435 W/m/K
453.22 K, 2432 kPa, transient hot wire | 0.03662 W/m/K
453.22 K, 2570 kPa, transient hot wire | 0.03586 W/m/K
453.22 K, 2810 kPa, transient hot wire | 0.03611 W/m/K
453.23 K, 2433 kPa, transient hot wire | 0.03706 W/m/K
453.23 K, 2810 kPa, transient hot wire | 0.03619 W/m/K
453.23 K, 8482 kPa, transient hot wire | 0.04362 W/m/K
453.24 K, 8482 kPa, transient hot wire | 0.04354 W/m/K
453.26 K, 5649 kPa, transient hot wire | 0.04056 W/m/K
453.27 K, 3283 kPa, transient hot wire | 0.03745 W/m/K
453.27 K, 5649 kPa, transient hot wire | 0.04057 W/m/K
453.28 K, 2570 kPa, transient hot wire | 0.03618 W/m/K
453.29 K, 2570 kPa, transient hot wire | 0.03626 W/m/K
453.29 K, 2810 kPa, transient hot wire | 0.03632 W/m/K
453.29 K, 4172 kPa, transient hot wire | 0.03871 W/m/K
453.29 K, 4174 kPa, transient hot wire | 0.03872 W/m/K
453.3 K, 2810 kPa, transient hot wire | 0.03661 W/m/K
453.33 K, 2570 kPa, transient hot wire | 0.03666 W/m/K
453.33 K, 3284 kPa, transient hot wire | 0.03713 W/m/K
453.34 K, 1996 kPa, transient hot wire | 0.03032 W/m/K
453.34 K, 3284 kPa, transient hot wire | 0.03709 W/m/K
453.34 K, 5678 kPa, transient hot wire | 0.04058 W/m/K
453.34 K, 5680 kPa, transient hot wire | 0.0407 W/m/K
453.36 K, 1997 kPa, transient hot wire | 0.02939 W/m/K
453.36 K, 2570 kPa, transient hot wire | 0.03639 W/m/K
453.36 K, 2811 kPa, transient hot wire | 0.03631 W/m/K
453.37 K, 8482 kPa, transient hot wire | 0.04354 W/m/K
453.38 K, 8480 kPa, transient hot wire | 0.0435 W/m/K
453.39 K, 4177 kPa, transient hot wire | 0.03877 W/m/K
453.4 K, 3286 kPa, transient hot wire | 0.03741 W/m/K
453.4 K, 5646 kPa, transient hot wire | 0.04064 W/m/K
453.4 K, 13124 kPa, transient hot wire | 0.04703 W/m/K and 0.04697 W/m/K
453.41 K, 3285 kPa, transient hot wire | 0.03741 W/m/K
453.41 K, 5645 kPa, transient hot wire | 0.04067 W/m/K
453.42 K, 1998 kPa, transient hot wire | 0.02991 W/m/K and 0.02978 W/m/K
453.46 K, 20262 kPa, transient hot wire | 0.05129 W/m/K
453.48 K, 3286 kPa, transient hot wire | 0.03719 W/m/K
453.48 K, 5676 kPa, transient hot wire | 0.04078 W/m/K
453.48 K, 20262 kPa, transient hot wire | 0.05134 W/m/K
453.49 K, 4182 kPa, transient hot wire | 0.03866 W/m/K
453.49 K, 5674 kPa, transient hot wire | 0.04064 W/m/K
453.49 K, 8479 kPa, transient hot wire | 0.04353 W/m/K
453.5 K, 4184 kPa, transient hot wire | 0.03869 W/m/K
453.5 K, 31253 kPa, transient hot wire | 0.05652 W/m/K
453.51 K, 8480 kPa, transient hot wire | 0.04354 W/m/K
453.51 K, 31255 kPa, transient hot wire | 0.05656 W/m/K
453.52 K, 1999 kPa, transient hot wire | 0.03046 W/m/K
453.52 K, 13123 kPa, transient hot wire | 0.04703 W/m/K
453.53 K, 13124 kPa, transient hot wire | 0.04696 W/m/K
453.54 K, 5643 kPa, transient hot wire | 0.04051 W/m/K
453.55 K, 47061 kPa, transient hot wire | 0.06271 W/m/K
453.56 K, 1718 kPa, transient hot wire | 0.02564 W/m/K
453.58 K, 1718 kPa, transient hot wire | 0.02573 W/m/K
453.6 K, 4188 kPa, transient hot wire | 0.03889 W/m/K
453.6 K, 46969 kPa, transient hot wire | 0.06282 W/m/K
453.6 K, 46979 kPa, transient hot wire | 0.06275 W/m/K
453.62 K, 4187 kPa, transient hot wire | 0.03872 W/m/K
453.62 K, 20261 kPa, transient hot wire | 0.05127 W/m/K
453.62 K, 20264 kPa, transient hot wire | 0.05121 W/m/K
453.63 K, 5670 kPa, transient hot wire | 0.04057 W/m/K
453.63 K, 5671 kPa, transient hot wire | 0.04054 W/m/K
453.63 K, 31252 kPa, transient hot wire | 0.05654 W/m/K
453.64 K, 526 kPa, hot wire | 0.02431 W/m/K
453.64 K, 8480 kPa, transient hot wire | 0.04343 W/m/K
453.64 K, 31251 kPa, transient hot wire | 0.05647 W/m/K
453.65 K, 526 kPa, hot wire | 0.02432 W/m/K
453.66 K, 8479 kPa, transient hot wire | 0.04348 W/m/K
453.66 K, 47049 kPa, transient hot wire | 0.06259 W/m/K
453.67 K, 1718 kPa, transient hot wire | 0.02603 W/m/K
453.67 K, 47042 kPa, transient hot wire | 0.06272 W/m/K
453.68 K, 1718 kPa, transient hot wire | 0.02589 W/m/K
453.68 K, 13120 kPa, transient hot wire | 0.04693 W/m/K
453.68 K, 13121 kPa, transient hot wire | 0.04701 W/m/K
453.69 K, 5641 kPa, transient hot wire | 0.04062 W/m/K
453.7 K, 353 kPa, hot wire | 0.02345 W/m/K
453.7 K, 5640 kPa, transient hot wire | 0.04066 W/m/K
453.72 K, 350 kPa, hot wire | 0.02302 W/m/K
453.73 K, 171 kPa, hot wire | 0.02261 W/m/K
453.73 K, 174 kPa, hot wire | 0.0228 W/m/K
453.73 K, 4189 kPa, transient hot wire | 0.03831 W/m/K
453.73 K, 4192 kPa, transient hot wire | 0.03871 W/m/K
453.73 K, 46962 kPa, transient hot wire | 0.06254 W/m/K
453.73 K, 46969 kPa, transient hot wire | 0.06263 W/m/K
453.74 K, 525 kPa, hot wire | 0.0244 W/m/K
453.75 K, 524 kPa, hot wire | 0.02432 W/m/K
453.75 K, 1718 kPa, transient hot wire | 0.02601 W/m/K
453.76 K, 1718 kPa, transient hot wire | 0.02605 W/m/K
453.77 K, 20261 kPa, transient hot wire | 0.05121 W/m/K
453.77 K, 20262 kPa, transient hot wire | 0.0513 W/m/K
453.78 K, 48 kPa, hot wire | 0.02241 W/m/K
453.78 K, 31246 kPa, transient hot wire | 0.0566 W/m/K
453.79 K, 31248 kPa, transient hot wire | 0.05653 W/m/K
453.8 K, 48 kPa, hot wire | 0.02228 W/m/K
453.8 K, 344 kPa, hot wire | 0.0233 W/m/K
453.8 K, 347 kPa, hot wire | 0.02342 W/m/K
453.8 K, 5666 kPa, transient hot wire | 0.0408 W/m/K
453.8 K, 8477 kPa, transient hot wire | 0.04345 W/m/K
453.81 K, 1718 kPa, transient hot wire | 0.02631 W/m/K
453.81 K, 47035 kPa, transient hot wire | 0.06264 W/m/K
453.82 K, 8478 kPa, transient hot wire | 0.0434 W/m/K
453.84 K, 171 kPa, hot wire | 0.02268 W/m/K
453.84 K, 524 kPa, hot wire | 0.02443 W/m/K
453.84 K, 13123 kPa, transient hot wire | 0.04696 W/m/K
453.85 K, 170 kPa, hot wire | 0.02247 W/m/K
453.85 K, 13121 kPa, transient hot wire | 0.04695 W/m/K
453.86 K, 523 kPa, hot wire | 0.02411 W/m/K
453.87 K, 5638 kPa, transient hot wire | 0.0407 W/m/K
453.87 K, 46957 kPa, transient hot wire | 0.06253 W/m/K
453.88 K, 47 kPa, hot wire | 0.02246 W/m/K and 0.02258 W/m/K
453.88 K, 1718 kPa, transient hot wire | 0.02616 W/m/K and 0.02618 W/m/K
453.88 K, 46954 kPa, transient hot wire | 0.06253 W/m/K
453.9 K, 340 kPa, hot wire | 0.02338 W/m/K
453.9 K, 342 kPa, hot wire | 0.02344 W/m/K
453.91 K, 1365 kPa, transient hot wire | 0.02445 W/m/K
453.92 K, 1364 kPa, transient hot wire | 0.02439 W/m/K
453.93 K, 20259 kPa, transient hot wire | 0.05122 W/m/K
453.94 K, 524 kPa, hot wire | 0.02452 W/m/K
453.94 K, 1718 kPa, transient hot wire | 0.02654 W/m/K
453.94 K, 1719 kPa, transient hot wire | 0.02663 W/m/K
453.94 K, 20259 kPa, transient hot wire | 0.05128 W/m/K
453.94 K, 31248 kPa, transient hot wire | 0.05655 W/m/K
453.95 K, 170 kPa, hot wire | 0.0227 W/m/K and 0.02256 W/m/K
453.95 K, 524 kPa, hot wire | 0.02446 W/m/K
453.95 K, 31244 kPa, transient hot wire | 0.05645 W/m/K
453.95 K, 47020 kPa, transient hot wire | 0.06258 W/m/K
453.96 K, 47012 kPa, transient hot wire | 0.06261 W/m/K
453.98 K, 48 kPa, hot wire | 0.02243 W/m/K and 0.02253 W/m/K
454.01 K, 338 kPa, hot wire | 0.02346 W/m/K
454.02 K, 339 kPa, hot wire | 0.02333 W/m/K
454.02 K, 13121 kPa, transient hot wire | 0.047 W/m/K and 0.04696 W/m/K
454.02 K, 46938 kPa, transient hot wire | 0.06262 W/m/K
454.02 K, 46945 kPa, transient hot wire | 0.06264 W/m/K
454.06 K, 523 kPa, hot wire | 0.02445 W/m/K
454.07 K, 170 kPa, hot wire | 0.02273 W/m/K
454.07 K, 522 kPa, hot wire | 0.02433 W/m/K
454.07 K, 1364 kPa, transient hot wire | 0.02449 W/m/K
454.07 K, 1365 kPa, transient hot wire | 0.02446 W/m/K
454.07 K, 1718 kPa, transient hot wire | 0.02688 W/m/K and 0.02682 W/m/K
454.08 K, 169 kPa, hot wire | 0.02266 W/m/K
454.09 K, 48 kPa, hot wire | 0.02257 W/m/K
454.1 K, 48 kPa, hot wire | 0.0225 W/m/K
454.1 K, 20256 kPa, transient hot wire | 0.0513 W/m/K and 0.05118 W/m/K
454.1 K, 31241 kPa, transient hot wire | 0.05644 W/m/K
454.1 K, 31244 kPa, transient hot wire | 0.05644 W/m/K
454.11 K, 47006 kPa, transient hot wire | 0.06269 W/m/K
454.13 K, 337 kPa, hot wire | 0.02342 W/m/K
454.13 K, 338 kPa, hot wire | 0.0234 W/m/K

Reference: the NIST ThermoML archive (doi:10.1021/acs.jced.8b00132)
